Measurements reported in patent publication US8058475B2, “Substituted cyclohexylmethyl compounds” (Gruenenthal GmbH, priority 2005, dated 2011).
Read-outs that look alike come from different tables or passages of the source.

Target: human μ-opiate receptor (Homo sapiens, UniProt P35372)
Assay: Affinity for the human μ-opiate receptor ([3H]-naloxone displacement, SPA, CHO-K1 membrane preparation)
Type: binding
Settings: for inhibition at 1 µM: read-out: μ-Opioid receptor, % inhibition [1 μM]; for Ki: read-out: μ-Opioid receptor, Ki
[1] = 1 μM test substance, inhibition of specific [3H]-naloxone binding

Sequence of human μ-opiate receptor (P35372 whole entry): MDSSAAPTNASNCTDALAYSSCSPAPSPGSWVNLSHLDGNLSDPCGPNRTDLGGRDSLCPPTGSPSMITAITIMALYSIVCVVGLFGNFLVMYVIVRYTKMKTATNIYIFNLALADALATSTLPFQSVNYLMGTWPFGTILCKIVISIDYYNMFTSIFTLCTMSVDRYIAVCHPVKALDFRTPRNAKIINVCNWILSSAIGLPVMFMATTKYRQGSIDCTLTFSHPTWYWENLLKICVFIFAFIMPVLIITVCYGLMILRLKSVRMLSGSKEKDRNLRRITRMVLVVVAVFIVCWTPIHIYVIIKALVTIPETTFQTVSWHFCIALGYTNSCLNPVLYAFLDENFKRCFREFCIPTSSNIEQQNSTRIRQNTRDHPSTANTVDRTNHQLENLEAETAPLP

Row | SMILES | inhibition at 1 µM [%] | Ki [nM] | also measured
1 | CN(C)C(c1cccc(F)c1)C1CCC(CCNC(=O)c2ccc(F)cc2)CC1 (centres unmarked) [compound 409, N-(2-{4-[dimethylamino-(3-fluoro-phenyl)-methyl]-cyclohexyl}-ethyl)-4-fluoro-benzamide] | 84 | 28 | –
2 | COc1c(C(=O)NCC2CCC(C(c3ccc(F)cc3)N(C)C)CC2)csc1Cl (centres unmarked) [compound 376, 5-chloro-4-methoxy-thiophene-3-carboxylic acid {4-[dimethylamino-(4-fluoro-phenyl)-methyl]-cyclohexylmethyl}-amide] | 84 | 40 | –
3 | CCCC(=O)N(c1ccccc1)C1CCC(C(c2ccccc2)N(C)C)CC1 (centres unmarked) [compound 180, N-(4-((dimethylamino)(phenyl)methyl)cyclohexyl)-N-phenylbutyramide] | 90 | – | –
4 | CN(C)C(c1cccc(F)c1)C1CCC(NC(=O)c2ccc3nsnc3c2)CC1 (centres unmarked) [compound 290, benzo[1,2,5]thiadiazole-5-carboxylic acid {4-[dimethylamino-(3-fluoro-phenyl)-methyl]-cyclohexyl}-amide] | 70 | – | –
5 | CN(C)C(c1cccc(F)c1)C1CCC(CCNC(=O)c2ccccc2Cl)CC1 (centres unmarked) [compound 404, 2-chloro-N-(2-{4-[dimethylamino-(3-fluoro-phenyl)-methyl]-cyclohexyl}-ethyl)-benzamide] | 97 | 19 | –
6 | CN(C)C(c1ccc(F)cc1)C1CCC(CCNC(=O)c2csc(-c3ccccc3)n2)CC1 (centres unmarked) [compound 464, 2-phenyl-thiazole-4-carboxylic acid (2-{4-[dimethylamino-(4-fluoro-phenyl)-methyl]-cyclohexyl}-ethyl)-amide] | 92 | 75 | –
7 | COc1cccc(C(=O)NC2CCC(C(c3cccs3)N(C)C)CC2)c1 (centres unmarked) [compound 199, N-[4-(dimethylamino-thiophen-2-yl-methyl)-cyclohexyl]-3-methoxy-benzamide] | 94 | 21 | –
8 | CN(C)C(c1ccccc1)C1CCC(CCNC(=O)c2cccnc2Sc2ccc(Cl)cc2)CC1 (single isomer, unassigned) [compound 470, 2-(4-chloro-phenylsulfanyl)-N-{2-[4-(dimethylamino-phenyl-methyl)-cyclohexyl]-ethyl}-nicotinamide] | 91 | 71 | –
9 | CN(C)C(c1ccc(Cl)cc1)C1CCC(O)(c2ccccc2)CC1 (centres unmarked) [compound 158, 4-[(4-chloro-phenyl)-dimethylamino-methyl]-1-phenyl-cyclohexanol] | – | – | inhibition at 1 µM [1]: 58%
10 | CCn1nc(C)c(Br)c1C(=O)NC1CCC(C(c2ccccc2)N(C)C)CC1 (centres unmarked) [compound 268, 4-bromo-2-ethyl-5-methyl-2H-pyrazole-3-carboxylic acid [4-(dimethylamino-phenyl-methyl)-cyclohexyl]-amide] | 76 | 86 | –
11 | CC(C)S(=O)(=O)c1csc(C(=O)NCC2CCC(C(c3cccs3)N(C)C)CC2)c1Cl (centres unmarked) [compound 367, 3-chloro-4-(propane-2-sulfonyl)-thiophene-2-carboxylic acid [4-(dimethylamino-thiophen-2-yl-methyl)-cyclohexylmethyl]-amide] | 85 | 110 | –
12 | CN(C)C(c1ccccc1)C1CCC(CNC(=O)c2cccc(C(F)(F)F)c2)CC1 (single isomer, unassigned) [compound 333, N-[4-(dimethylamino-phenyl-methyl)-cyclohexylmethyl]-3-trifluoromethyl-benzamide] | – | 17 | μ-Opioid receptor, % inhibition [1 μM] (1 µM): 92%
13 | CN(C)C(c1cccc(F)c1)C1CCC(O)(Cc2ccccc2)CC1 (centres unmarked) [compound 152, 1-benzyl-4-[dimethylamino-(3-fluoro-phenyl)-methyl]-cyclohexanol] | – | – | inhibition at 1 µM [1]: 63%
14 | Cc1ccccc1C(=O)NCC1CCC(C(c2ccccc2)N(C)C)CC1 (single isomer, unassigned) [compound 325, N-[4-(dimethylamino-phenyl-methyl)-cyclohexylmethyl]-2-methyl-benzamide] | – | 34 | μ-Opioid receptor, % inhibition [1 μM] (1 µM): 94%
15 | COc1c(C(=O)NCC2CCC(C(c3ccccc3)N(C)C)CC2)csc1Cl (centres unmarked) [compound 293, 5-chloro-4-methoxy-thiophene-3-carboxylic acid [4-(dimethylamino-phenyl-methyl)-cyclohexylmethyl]-amide] | 102 | 4.6 | –
16 | Cc1cc(C(=O)NC2CCC(C(c3ccccc3)N(C)C)CC2)no1 (centres unmarked) [compound 282, 5-methyl-isoxazole-3-carboxylic acid [4-(dimethylamino-phenyl-methyl)-cyclohexyl]-amide] | 73 | 110 | –
17 | CN(C)C(c1cccs1)C1CCC(CCNC(=O)c2csc3ccccc23)CC1 (centres unmarked) [compound 465, benzo[b]thiophene-3-carboxylic acid {2-[4-(dimethylamino-thiophen-2-yl-methyl)-cyclohexyl]-ethyl}-amide] | 99 | 3.1 | –
18 | CN(C)C(c1ccccc1)C1CCC(CNC(=O)c2cc([N+](=O)[O-])cc([N+](=O)[O-])c2)CC1 (centres unmarked) [compound 392, N-[4-(dimethylamino-phenyl-methyl)-cyclohexylmethyl]-3,5-dinitro-benzamide] | 80 | – | Ki (acylated amines (Table 20)): 180 nM

Row | SMILES | inhibition at 1 µM [%] | Ki [nM] | also measured
19 | CCC(C(=O)NC1CCC(C(c2ccccc2)N(C)C)CC1)c1ccccc1 (single isomer, unassigned) [compound 234, N-[4-(dimethylamino-phenyl-methyl)-cyclohexyl]-2-phenyl-butyramide] | 84 | 46 | –
20 | CN(C)C(c1ccccc1)C1CCC(CNC(=O)c2cccnc2Sc2ccc(Cl)cc2)CC1 (centres unmarked) [compound 374, 2-(4-chloro-phenylsulfanyl)-N-[4-(dimethylamino-phenyl-methyl)-cyclohexyl-methyl]-nicotinamide] | 84 | – | –
21 | Cc1cccc(C(=O)NCCC2CCC(C(c3cccs3)N(C)C)CC2)c1 (centres unmarked) [compound 430, N-{2-[4-(dimethylamino-thiophen-2-yl-methyl)-cyclohexyl]-ethyl}-3-methyl-benzamide] | 101 | 4.4 | –
22 | CN(C)C(c1cccc(F)c1)C1CCC(CNC(=O)CC(C)(C)C)CC1 (centres unmarked) [compound 295, N-{4-[dimethylamino-(3-fluoro-phenyl)-methyl]-cyclohexylmethyl}-3,3-dimethyl-butyramide] | 101 | 7.3 | –
23 | CN(C)C(c1ccccc1)C1CCC(CNC(=O)c2cccnc2Cl)CC1 (centres unmarked) [compound 355, 2-chloro-N-[4-(dimethylamino-phenyl-methyl)-cyclohexylmethyl]-nicotinamide] | 86 | 120 | –
24 | CN(C)C(c1ccccc1)C1CCC(NC(=O)c2cc(C(F)(F)F)ccc2F)CC1 (centres unmarked) [compound 205, N-[4-(dimethylamino-phenyl-methyl)-cyclohexyl]-2-fluoro-5-trifluoromethyl-benzamide] | 94 | 22 | –
25 | Cc1ccccc1C(=O)NCC1CCC(C(c2cccc(F)c2)N(C)C)CC1 (centres unmarked) [compound 384, N-{4-[dimethylamino-(3-fluoro-phenyl)-methyl]-cyclohexylmethyl}-2-methyl-benzamide] | 82 | 38 | –
26 | CN(C)C(c1cccc(F)c1)C1CCC(NC(=O)c2c(F)cccc2F)CC1 (centres unmarked) [compound 278, N-{4-[dimethylamino-(3-fluoro-phenyl)-methyl]-cyclohexyl}-2,6-difluoro-benzamide] | 74 | 86 | –
27 | CN(C)C(c1ccccc1)C1CCC(CNC(=O)c2cccnc2Oc2ccc(Cl)cc2)CC1 (single isomer, unassigned) [compound 383, 2-(4-chloro-phenoxy)-N-[4-(dimethylamino-phenyl-methyl)-cyclohexylmethyl]-nicotinamide] | – | 86 | μ-Opioid receptor, % inhibition [1 μM] (1 µM): 83%
28 | CN(C)C(c1ccccc1)C1CCC(NC(=O)c2cccc3ccccc23)CC1 (centres unmarked) [compound 226, naphthyl-1-carboxylic acid [4-(dimethylamino-phenyl-methyl)-cyclohexyl]-amide] | – | 58 | μ-Opioid receptor, % inhibition [1 μM]: 87%
29 | Cc1ccc(C(=O)NC2CCC(C(c3ccccc3)N(C)C)CC2)cc1 (centres unmarked) [compound 242, N-[4-(dimethylamino-phenyl-methyl)-cyclohexyl]-4-methyl-benzamide] | 82 | 46 | –
30 | CN(C)C(c1cccc(F)c1)C1CCC(CCNC(=O)c2ccccc2F)CC1 (centres unmarked) [compound 411, N-(2-{4-[dimethylamino-(3-fluoro-phenyl)-methyl]-cyclohexyl}-ethyl)-2-fluoro-benzamide] | 99 | 11 | –
31 | CN(C)C(c1ccccc1)C1CCC(CCNC(=O)c2cc(F)cc(F)c2)CC1 (centres unmarked) [compound 433, N-{2-[4-(dimethylamino-phenyl-methyl)-cyclohexyl]-ethyl}-3,5-difluoro-benzamide] | 89 | 3.8 | –
32 | CN(C)C(c1cccc(F)c1)C1CCC(NC(=O)c2cc(F)cc(F)c2)CC1 (centres unmarked) [compound 204, N-{4-[dimethylamino-(3-fluoro-phenyl)-methyl]-cyclohexyl}-3,5-difluoro-benzamide] | 94 | 18 | –
33 | CCC(C)C(=O)NCC1CCC(C(c2cccc(F)c2)N(C)C)CC1 (single isomer, unassigned) [compound 378, N-{4-[dimethylamino-(3-fluoro-phenyl)-methyl]-cyclohexylmethyl}-2-methyl-butyramide] | – | 55 | μ-Opioid receptor, % inhibition [1 μM] (1 µM): 83%
34 | CCCc1ccc(C(=O)NCC2CCC(C(c3cccs3)N(C)C)CC2)cc1 (centres unmarked) [compound 356, N-[4-(dimethylamino-thiophen-2-yl-methyl)-cyclohexylmethyl]-4-propyl-benzamide] | 86 | 120 | –
35 | Cc1oc(-c2ccccc2)cc1C(=O)NCC1CCC(C(c2ccccc2)N(C)C)CC1 (centres unmarked) [compound 345, 2-methyl-5-phenyl-furan-3-carboxylic acid [4-(dimethylamino-phenyl-methyl)-cyclohexylmethyl]-amide] | 90 | 13 | –
